Source: article PMC9231160, “Monoterpenoid Glycosides from the Leaves of Ligustrum robustum and Their Bioactivities” (Molecules, 2022)
Entries after “also recorded” stand apart in the source; their conditions may differ.

Experiments:
α-amylase = α-amylase inhibitory activity; assay type: biochemical; conditions: for α-Amylase Inhibition at 0.1 mM: mean ± SD (n = 3), NA = no activity
Experimental: (§1) All samples were measured in triplicate. […] Differences of means between groups were analyzed by one-way analysis of variance (ANOVA) on statistical package SPSS 13.0. The differences between groups were believed to be significant when p < 0.05.
(§2) S1.3. Determination of α-amylase inhibitory activity.
Phosphate buffer (20 mM, pH 6.9, containing 6 mM NaCl) was used as the […]
μL, 1%, w/v) were mixed and incubated in a 96-well microplate at 37 °C for 10 min.
Then, α-amylase solution (50 μL, 0.2 U/mL) was added and the mixture was incubated at 37 °C for an additional 10 min. The reaction was stopped by addition of […]
microplate was immediately heated in 95 °C water bath for 10 min. When the reaction solution cooled to room temperature, all samples were diluted by adding distilled water (50 μL), and then their absorbance was measured using a microplate reader at […]
starch solution) at 540 nm, thus the inhibitory activity was calculated as (Acontrol - Asample)/Acontrol × 100%, in which Asample was the absorbance of the sample and Acontrol was the absorbance of the phosphate buffer control without test samples. Acarbose was used as the positive control.
(§3) S1.4. DPPH radical scavenging assay […]

[1] = target: T1, fatty acid synthase (FAS) (Gallus gallus, UniProt P12276); test: FAS inhibitory activity; assay type: biochemical, chicken; conditions: for IC50: FAS isolated from chicken liver, mean ± SD (n = 3), NA = no activity; for FAS inhibitory activity (in words): qualitative statement
T1 construct: isolated from chicken liver and kept in ice-bath; from tissue; host or cells: chicken liver
T1 sequence (P12276 whole entry): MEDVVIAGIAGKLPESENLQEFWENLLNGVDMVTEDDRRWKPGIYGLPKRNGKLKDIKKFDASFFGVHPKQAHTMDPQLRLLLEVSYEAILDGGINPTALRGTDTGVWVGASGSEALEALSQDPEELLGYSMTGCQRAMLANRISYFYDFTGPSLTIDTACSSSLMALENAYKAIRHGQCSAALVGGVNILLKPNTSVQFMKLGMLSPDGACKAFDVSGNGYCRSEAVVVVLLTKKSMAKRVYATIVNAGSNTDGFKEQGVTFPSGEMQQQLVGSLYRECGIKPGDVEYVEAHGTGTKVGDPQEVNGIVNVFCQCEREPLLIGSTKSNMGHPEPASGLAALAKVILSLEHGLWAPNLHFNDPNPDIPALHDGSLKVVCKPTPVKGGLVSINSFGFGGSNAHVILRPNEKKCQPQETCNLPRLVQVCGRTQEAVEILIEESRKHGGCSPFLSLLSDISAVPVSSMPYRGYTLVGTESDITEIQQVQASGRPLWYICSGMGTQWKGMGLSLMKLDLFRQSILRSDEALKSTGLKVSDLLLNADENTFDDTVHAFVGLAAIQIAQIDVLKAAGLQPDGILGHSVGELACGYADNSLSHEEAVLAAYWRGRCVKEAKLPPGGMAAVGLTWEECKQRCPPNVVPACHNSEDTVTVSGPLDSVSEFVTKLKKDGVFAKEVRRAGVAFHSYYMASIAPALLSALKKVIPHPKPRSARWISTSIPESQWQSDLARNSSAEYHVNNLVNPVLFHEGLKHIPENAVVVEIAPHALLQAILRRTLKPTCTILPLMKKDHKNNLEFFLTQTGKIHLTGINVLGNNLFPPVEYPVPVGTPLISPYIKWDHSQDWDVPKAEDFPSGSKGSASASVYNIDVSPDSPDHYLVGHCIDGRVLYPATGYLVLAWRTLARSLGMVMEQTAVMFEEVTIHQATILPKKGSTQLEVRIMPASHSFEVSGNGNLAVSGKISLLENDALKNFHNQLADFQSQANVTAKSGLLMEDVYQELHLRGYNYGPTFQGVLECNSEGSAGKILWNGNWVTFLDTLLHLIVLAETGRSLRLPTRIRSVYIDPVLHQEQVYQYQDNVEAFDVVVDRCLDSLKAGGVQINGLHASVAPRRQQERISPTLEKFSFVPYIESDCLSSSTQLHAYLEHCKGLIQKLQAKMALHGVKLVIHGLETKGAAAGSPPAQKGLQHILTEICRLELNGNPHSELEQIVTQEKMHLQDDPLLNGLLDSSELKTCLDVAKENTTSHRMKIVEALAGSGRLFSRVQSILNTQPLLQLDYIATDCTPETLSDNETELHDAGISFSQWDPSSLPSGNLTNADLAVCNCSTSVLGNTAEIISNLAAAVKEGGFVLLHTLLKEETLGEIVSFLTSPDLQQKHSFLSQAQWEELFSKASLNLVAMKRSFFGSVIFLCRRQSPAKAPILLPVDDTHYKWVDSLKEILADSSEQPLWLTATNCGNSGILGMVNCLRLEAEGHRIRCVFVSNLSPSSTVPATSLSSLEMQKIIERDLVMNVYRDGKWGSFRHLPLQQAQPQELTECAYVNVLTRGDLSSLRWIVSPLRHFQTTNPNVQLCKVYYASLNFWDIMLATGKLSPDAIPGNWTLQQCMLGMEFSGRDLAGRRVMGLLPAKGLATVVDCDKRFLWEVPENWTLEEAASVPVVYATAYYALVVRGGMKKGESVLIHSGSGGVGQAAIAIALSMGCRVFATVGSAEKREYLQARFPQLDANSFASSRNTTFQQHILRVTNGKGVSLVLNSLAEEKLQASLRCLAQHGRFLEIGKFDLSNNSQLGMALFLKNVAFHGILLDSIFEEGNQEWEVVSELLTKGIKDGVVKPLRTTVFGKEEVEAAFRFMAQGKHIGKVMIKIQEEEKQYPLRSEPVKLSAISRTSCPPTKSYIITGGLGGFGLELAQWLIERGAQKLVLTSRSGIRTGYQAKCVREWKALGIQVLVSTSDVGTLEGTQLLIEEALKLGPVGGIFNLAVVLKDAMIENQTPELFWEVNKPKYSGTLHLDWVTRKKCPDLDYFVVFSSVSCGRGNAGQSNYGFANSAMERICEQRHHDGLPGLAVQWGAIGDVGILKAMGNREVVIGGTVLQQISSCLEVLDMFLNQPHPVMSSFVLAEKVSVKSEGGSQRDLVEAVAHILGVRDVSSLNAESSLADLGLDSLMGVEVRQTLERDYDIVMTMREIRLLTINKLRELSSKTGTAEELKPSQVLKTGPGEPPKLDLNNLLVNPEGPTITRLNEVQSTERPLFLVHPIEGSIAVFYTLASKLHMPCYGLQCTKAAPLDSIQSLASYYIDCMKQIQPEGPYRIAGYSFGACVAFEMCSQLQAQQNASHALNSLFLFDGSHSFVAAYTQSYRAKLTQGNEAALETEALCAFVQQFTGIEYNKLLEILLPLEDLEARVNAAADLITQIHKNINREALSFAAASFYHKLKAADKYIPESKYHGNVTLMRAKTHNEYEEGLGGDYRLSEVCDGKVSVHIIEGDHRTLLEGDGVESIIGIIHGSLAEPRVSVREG
Experimental: as §1
S1. Determination of bioactivities.
S1.1. Determination of FAS inhibitory activity. […]
diluted with potassium phosphate buffer (0.1 M, pH 7.0). Sample solution (100 μL, 20-2000 μM, 37 °C) and FAS substrates (1.8 mL, 37 °C) were mixed in a cuvette, and then FAS solution (100 μL, 37 °C, isolated from chicken liver and kept in ice-bath before use) was added. The absorbance of reaction mixture was monitored by a UV-vis spectrophotometer at 340 nm in 1 min. The inhibitory effect was calculated by the following equation: FAS inhibition (%) = (Acontrol - Asample)/Acontrol × 100%, where Acontrol represented the FAS activity in the control group (phosphate buffer instead of sample solution), Asample represented the FAS activity in the sample groups. The FAS activity was calculated as (A0 - A1)/1 min, in which A0 was the absorbance of the reaction mixture when the FAS was added, and A1 was the absorbance of the reaction mixture after reaction 1 min. Orlistat was used as the positive control.
FAS substrates: 0.1 M potassium phosphate buffer (pH 7.0), 1 mM ethylene-

α-Glucosidase from yeast = test: α-glucosidase inhibitory activity; assay type: biochemical; conditions: for α-Glucosidase Inhibition at 0.1 mM: mean ± SD (n = 3), NA = no activity
Experimental: as §1
S1. Determination of bioactivities. […]
S1.2. Determination of α-glucosidase inhibitory activity. […]
diluted with phosphate buffer (0.1 M, pH 6.8). […]
and 4-nitrophenyl α-D-glucopyranoside (pNPG) solution (50 μL, 5 mM) were mixed and incubated in a 96-well microplate at 37 °C for 5 min. α-Glucosidase from yeast (50 μL, 0.2 U/mL) was added and incubated at 37 °C for another 30 min. Finally, 50 μL of Na2CO3 (1M) was added to terminate the reaction. The absorbance of mixture was measured using a microplate reader at a wavelength 405 nm. […]
following equation: α-glucosidase inhibition (%) = (Acontrol - Asample)/Acontrol × 100%, where Acontrol represented the absorbance of phosphate buffer control without test samples, Asample represented the absorbance of test samples. Acarbose was used as the […]

[2] = ABTS radical scavenging assay; conditions: mean ± SD (n = 3)
Experimental: All samples were measured in triplicate. […] Differences of means between groups were analyzed by one-way analysis of variance (ANOVA) on statistical package SPSS 13.0. The differences between groups were believed to be significant when p < 0.05. […]
as §3
S1.5. ABTS radical scavenging assay
The ABTS radical scavenging assay was used also to evaluate the antioxidant
The ABTS free radical cation (ABTS•+ ) was
manufactured by reacting ABTS stock solution (7 mM) with potassium persulphate

[3] = DPPH radical scavenging assay; conditions: mean ± SD (n = 3), NA = no activity
Experimental: Statistical analyses were carried out on GraphPad Prism 5.01. All samples were measured in triplicate. The IC50 (the final concentration of sample needed to inhibit 50% of enzyme activity or scavenge 50% of free radical) was obtained by plotting the inhibition or scavenging percentage of each sample against its concentration. The results are reported as mean ± standard deviation (SD). Differences of means between groups were analyzed by one-way analysis of variance (ANOVA) on statistical package SPSS 13.0. The differences between groups were believed to be significant when p < 0.05.
as §2
Phosphate buffer (20 mM, pH 6.9, containing 6 mM NaCl) was used as the solvent in this assay. Sample solution (50 μL, 50-1500 μM) and starch solution (50 μL, 1%, w/v) were mixed and incubated in a 96-well microplate at 37 °C for 10 min.
Then, α-amylase solution (50 μL, 0.2 U/mL) was added and the mixture was incubated at 37 °C for an additional 10 min. […] When the reaction solution cooled to room temperature, all samples were diluted by adding distilled water (50 μL), and then their absorbance was measured using a microplate reader at 540 nm. All samples had little background absorbance (phosphate buffer instead of starch solution) at 540 nm, thus the inhibitory activity was calculated as (Acontrol - Asample)/Acontrol × 100%, in which Asample was the absorbance of the sample and Acontrol was the absorbance of the phosphate buffer control without test samples. […]
The DPPH radical scavenging assay was used to evaluate the antioxidant activity of compounds 1-11. […] The absorbance of the reaction mixture was measured at 517 nm using a microplate reader. The DPPH scavenging activity was calculated by the following formula: DPPH scavenging activity (%) = (Acontrol - Asample)/Acontrol × 100%, where Acontrol was the absorbance of ethanol control without samples, Asample was the absorbance of sample. […]

[4] = qualitative statement, compared with positive control acarbose

Row | Structure (SMILES) | α-Amylase Inhibition at 0.1 mM (α-amylase) [b %] | IC50 [1] [µM] | FAS inhibitory activity (in words) [1] | α-Glucosidase Inhibition at 0.1 mM (α-Glucosidase from yeast) | IC50 [2] [µM] | IC50 [3] [µM] | α-amylase inhibitory effect (in words) (α-amylase; [4]) | α-glucosidase inhibitory effect (in words) (α-Glucosidase from yeast; [4])
1 | C=CC(C)(CCC=C(C)C)O[C@@H]1O[C@H](CO)[C@@H](OC(=O)/C=C/c2ccc(O)cc2)[C@H](O[C@@H]2O[C@@H](C)[C@H](O[C@@H]3O[C@@H](C)[C@H](O)[C@@H](O)[C@H]3O)[C@@H](O)[C@H]2O)[C@H]1O (stereo partly drawn) [Compound 6, linaloyl-[3-O-α-L-rhamnopyranosyl-(1→4)-α-L-rhamnopyranosyl]-(4-O-trans-p-coumaroyl)-O-β-D-glucopyranoside] | 26.1 ± 3.0 | 4.78 ± 0.14 | strong FAS inhibitory activity | 12.0 ± 1.7 d % | 11.3 ± 0.16 | – | – | –
2 | CC(=CCOC1OC(CO)C(OC(=O)C=Cc2ccc(O)cc2)C(OC2OC(C)C(O)C(O)C2O)C1O)CCC(O)C(C)(C)O (centres unmarked) [Compound 11] | 31.3 ± 1.3 | 61.74 ± 0.45 | – | – | 7.92 ± 0.23 | – | – | –
3 | C=C(C)C(O)CCC(C)=CCOC1OC(CO)C(OC(=O)C=Cc2ccc(O)cc2)C(OC2OC(C)C(O)C(O)C2O)C1O (centres unmarked) [Compound 9] | 29.2 ± 8.4 | 21.7 ± 0.46 | – | 12.4 ± 5.6 d % | 18.7 ± 0.47 | – | – | –
4 | O=C1O[C@H]([C@@H](O)CO)C(O)=C1O [L-(+)-ascorbic acid, reference compound] | – | – | – | – | – | 13.66 ± 0.13 | – | –
5 | C=CC(C)(CCC=C(C)C)O[C@@H]1O[C@H](COC(=O)/C=C/c2ccc(O)cc2)[C@@H](O)[C@H](O[C@@H]2O[C@@H](C)[C@H](O)[C@@H](O)[C@H]2O)[C@H]1O (mixture of isomers) [Compound 2, 3(R)- and 3(S)-linaloyl-(3-O-α-L-rhamnopyranosyl)-(6-O-trans-p-coumaroyl)-O-β-D-glucopyranoside] | 31.5 ± 0.5 | 2.36 ± 0.1 | strong FAS inhibitory activity | 48.1 ± 4.3 b % | 9.41 ± 0.22 | > 250 | moderate | weaker α-glucosidase inhibitory effect than the positive control acarbose; also recorded: moderate
6 | CC(C)=CCC/C(C)=C/CO[C@@H]1O[C@H](CO)[C@@H](OC(=O)/C=C/c2ccc(O)cc2)[C@H](O[C@@H]2O[C@@H](C)[C@H](O)[C@@H](O)[C@H]2O)[C@H]1O [Compound 10, ligurobustoside C] | – | 4.68 ± 0.16 | strong FAS inhibitory activity | 28.7 ± 2.1 c % | 15.1 ± 0.1 | – | – | –
7 | C=CC(C)(CCC=C(C)C)O[C@@H]1O[C@H](CO)[C@@H](OC(=O)/C=C/c2ccc(O)c(O)c2)[C@H](O[C@@H]2O[C@@H](C)[C@H](O)[C@@H](O)[C@H]2O)[C@H]1O (mixture of isomers) [Compound 1, 3(R)- and 3(S)-linaloyl-(3-O-α-L-rhamnopyranosyl)-(4-O-trans-caffeoyl)-O-β-D-glucopyranoside] | – | – | – | – | 6.91 ± 0.1 | 19.7 ± 0.23 | – | –
8 | COC(C)(C)C=CCC(C)=CCOC1OC(COC(=O)C=Cc2ccc(O)cc2)C(O)C(OC2OC(C)C(O)C(O)C2O)C1O (centres unmarked) [Compound 8] | 31.4 ± 1.9 | 25.8 ± 0.47 | – | 24.7 ± 3.5 c % | 19.5 ± 0.46 | – | – | –
9 | C=CC(C)(CCC=C(C)C)O[C@@H]1O[C@H](CO)[C@@H](OC(=O)/C=C\c2ccc(O)cc2)[C@H](O[C@@H]2O[C@@H](C)[C@H](O[C@@H]3O[C@@H](C)[C@H](O)[C@@H](O)[C@H]3O)[C@@H](O)[C@H]2O)[C@H]1O (stereo partly drawn) [Compound 7, linaloyl-[3-O-α-L-rhamnopyranosyl-(1→4)-α-L-rhamnopyranosyl]-(4-O-cis-p-coumaroyl)-O-β-D-glucopyranoside] | – | > 100 | – | – | 20.2 ± 0.33 | – | – | –
10 | C=CC(C)(C/C=C/C(C)(C)OC)O[C@@H]1O[C@H](COC(=O)/C=C/c2ccc(O)cc2)[C@@H](O)[C@H](O[C@@H]2O[C@@H](C)[C@H](O)[C@@H](O)[C@H]2O)[C@H]1O (stereo partly drawn) [Compound 5, (5E)-3-(3-hydroxy-7-methoxy-3,7-dimethyl-octa-1,5-dienyl)-(3-O-α-L-rhamnopyranosyl)-(6-O-trans-p-coumaroyl)-O-β-D-glucopyranoside] | 35.6 ± 2.0 | 23.7 ± 0.45 | – | 13.8 ± 2.0 d % | 6.93 ± 0.01 | – | – | –
11 | C=CC(C)(CCC(O)C(=C)C)O[C@@H]1O[C@H](COC(=O)/C=C/c2ccc(O)cc2)[C@@H](O)[C@H](O[C@@H]2O[C@@H](C)[C@H](O)[C@@H](O)[C@H]2O)[C@H]1O (stereo partly drawn) [Compound 3, 3-(3,6-dihydroxy-3,7-dimethyl-octa-1,7-dienyl)-(3-O-α-L-rhamnopyranosyl)-(6-O-trans-p-coumaroyl)-O-β-D-glucopyranoside] | 32.5 ± 6.3 | 21.8 ± 0.38 | – | 27.3 ± 0.3 c % | 16 ± 0.69 | – | – | –
12 | C=CC(C)(CCC(O)C(C)(C)O)OC1OC(COC(=O)C=Cc2ccc(O)cc2)C(O)C(OC2OC(C)C(O)C(O)C2O)C1O (centres unmarked) [Compound 4] | 28.2 ± 3.9 | > 100 | – | – | 9.66 ± 0.17 | – | – | –
